Source: ChEMBL document CHEMBL5579851, “Synthesis and antifungal evaluation of novel triazole derivatives bearing a pyrazole-methoxyl moiety” (Eur J Med Chem, 2024)
≈ marks a conversion by molar mass, not a printed value.

The molecules below were run on Candida albicans (assay: Antifungal activity against Candida albicans SC5314 assessed as inhibition of fungal growth incubated for 48 hrs by CLSI based broth microdilution assay). Details: not given.
Type: functional

**Q.** C[C@@H](OCc1ccn(Cc2ccc(F)cc2F)n1)[C@](O)(Cn1cncn1)c1ccc(F)cc1F was tested. Which MIC did it give?
**A.** ≤ 0.125 µg/mL

**Q.** With C[C@@H](OCc1ccn(Cc2cccc(F)c2)n1)[C@](O)(Cn1cncn1)c1ccc(F)cc1F as the molecule, how does the MIC read?
**A.** ≤ 0.125 µg/mL

**Q.** How did the MIC turn out when C[C@@H](OCc1ccn(Cc2cc(F)ccc2F)n1)[C@](O)(Cn1cncn1)c1ccc(F)cc1F was run?
**A.** ≤ 0.125 µg/mL

**Q.** With C[C@@H](OCc1ccn(Cc2cccc(Cl)c2Cl)n1)[C@](O)(Cn1cncn1)c1ccc(F)cc1F as the molecule, how does the MIC read?
**A.** 0.25 µg/mL (≈ 0.492 µM)

**Q.** How did the MIC turn out when Cc1ccccc1Cn1ccc(CO[C@H](C)[C@](O)(Cn2cncn2)c2ccc(F)cc2F)n1 was run?
**A.** ≤ 0.125 µg/mL

**Q.** For C[C@@H](OCc1ccn(Cc2ccc(Cl)cc2Cl)n1)[C@](O)(Cn1cncn1)c1ccc(F)cc1F, which MIC is on record?
**A.** 0.25 µg/mL (≈ 0.492 µM)

**Q.** With C[C@@H](OCc1ccn(Cc2cccc(F)c2F)n1)[C@](O)(Cn1cncn1)c1ccc(F)cc1F as the molecule, how does the MIC read?
**A.** ≤ 0.125 µg/mL

The molecules below were run on Candida albicans (assay: Antifungal activity against Candida albicans 10231 assessed as inhibition of fungal growth incubated for 48 hrs by CLSI based broth microdilution assay). Details: not given.
Type: functional

**Q.** For C[C@@H](OCc1ccn(Cc2ccc(F)cc2F)n1)[C@](O)(Cn1cncn1)c1ccc(F)cc1F, which MIC is on record?
**A.** 0.25 µg/mL (≈ 0.526 µM)

**Q.** With C[C@@H](OCc1ccn(Cc2cccc(F)c2)n1)[C@](O)(Cn1cncn1)c1ccc(F)cc1F as the molecule, how does the MIC read?
**A.** ≤ 0.125 µg/mL

**Q.** C[C@@H](OCc1ccn(Cc2cc(F)ccc2F)n1)[C@](O)(Cn1cncn1)c1ccc(F)cc1F was tested. Which MIC did it give?
**A.** 0.25 µg/mL (≈ 0.526 µM)

**Q.** C[C@@H](OCc1ccn(Cc2cccc(Cl)c2Cl)n1)[C@](O)(Cn1cncn1)c1ccc(F)cc1F was tested. Which MIC did it give?
**A.** ≤ 0.125 µg/mL

**Q.** With Cc1ccccc1Cn1ccc(CO[C@H](C)[C@](O)(Cn2cncn2)c2ccc(F)cc2F)n1 as the molecule, how does the MIC read?
**A.** 0.25 µg/mL (≈ 0.551 µM)

**Q.** C[C@@H](OCc1ccn(Cc2ccc(Cl)cc2Cl)n1)[C@](O)(Cn1cncn1)c1ccc(F)cc1F was tested. Which MIC did it give?
**A.** 0.25 µg/mL (≈ 0.492 µM)

**Q.** How did the MIC turn out when C[C@@H](OCc1ccn(Cc2cccc(F)c2F)n1)[C@](O)(Cn1cncn1)c1ccc(F)cc1F was run?
**A.** 0.25 µg/mL (≈ 0.526 µM)

The molecules below were run on Cryptococcus neoformans (assay: Antifungal activity against Cryptococcus neoformans 32609 assessed as inhibition of fungal growth incubated for 72 hrs by CLSI based broth microdilution assay). Details: not given.
Type: functional

**Q.** C[C@@H](OCc1ccn(Cc2ccc(F)cc2F)n1)[C@](O)(Cn1cncn1)c1ccc(F)cc1F was tested. Which MIC did it give?
**A.** 0.5 µg/mL (≈ 1.05 µM)

**Q.** For C[C@@H](OCc1ccn(Cc2cccc(F)c2)n1)[C@](O)(Cn1cncn1)c1ccc(F)cc1F, which MIC is on record?
**A.** 0.25 µg/mL (≈ 0.547 µM)

**Q.** How did the MIC turn out when C[C@@H](OCc1ccn(Cc2cc(F)ccc2F)n1)[C@](O)(Cn1cncn1)c1ccc(F)cc1F was run?
**A.** 0.5 µg/mL (≈ 1.05 µM)

**Q.** With C[C@@H](OCc1ccn(Cc2cccc(Cl)c2Cl)n1)[C@](O)(Cn1cncn1)c1ccc(F)cc1F as the molecule, how does the MIC read?
**A.** 0.5 µg/mL (≈ 0.984 µM)

**Q.** Cc1ccccc1Cn1ccc(CO[C@H](C)[C@](O)(Cn2cncn2)c2ccc(F)cc2F)n1 was tested. Which MIC did it give?
**A.** 0.5 µg/mL (≈ 1.1 µM)

**Q.** For C[C@@H](OCc1ccn(Cc2ccc(Cl)cc2Cl)n1)[C@](O)(Cn1cncn1)c1ccc(F)cc1F, which MIC is on record?
**A.** 0.5 µg/mL (≈ 0.984 µM)

**Q.** C[C@@H](OCc1ccn(Cc2cccc(F)c2F)n1)[C@](O)(Cn1cncn1)c1ccc(F)cc1F was tested. Which MIC did it give?
**A.** 0.5 µg/mL (≈ 1.05 µM)

What follows are molecules tested on Nakaseomyces glabratus (assay: Antifungal activity against Candida glabrata 537 assessed as inhibition of fungal growth incubated for 48 hrs by CLSI based broth microdilution assay). Details: not given.
Type: functional

**Q.** C[C@@H](OCc1ccn(Cc2ccc(F)cc2F)n1)[C@](O)(Cn1cncn1)c1ccc(F)cc1F was tested. Which MIC did it give?
**A.** 0.25 µg/mL (≈ 0.526 µM)

**Q.** C[C@@H](OCc1ccn(Cc2cccc(F)c2)n1)[C@](O)(Cn1cncn1)c1ccc(F)cc1F was tested. Which MIC did it give?
**A.** 0.25 µg/mL (≈ 0.547 µM)

**Q.** How did the MIC turn out when C[C@@H](OCc1ccn(Cc2cc(F)ccc2F)n1)[C@](O)(Cn1cncn1)c1ccc(F)cc1F was run?
**A.** 0.25 µg/mL (≈ 0.526 µM)

**Q.** C[C@@H](OCc1ccn(Cc2cccc(Cl)c2Cl)n1)[C@](O)(Cn1cncn1)c1ccc(F)cc1F was tested. Which MIC did it give?
**A.** 0.5 µg/mL (≈ 0.984 µM)

**Q.** Which MIC does the source give for Cc1ccccc1Cn1ccc(CO[C@H](C)[C@](O)(Cn2cncn2)c2ccc(F)cc2F)n1 here?
**A.** 1 µg/mL (≈ 2.21 µM)

**Q.** C[C@@H](OCc1ccn(Cc2ccc(Cl)cc2Cl)n1)[C@](O)(Cn1cncn1)c1ccc(F)cc1F was tested. Which MIC did it give?
**A.** 1 µg/mL (≈ 1.97 µM)

**Q.** C[C@@H](OCc1ccn(Cc2cccc(F)c2F)n1)[C@](O)(Cn1cncn1)c1ccc(F)cc1F was tested. Which MIC did it give?
**A.** 0.25 µg/mL (≈ 0.526 µM)

Each molecule was assayed on Candida parapsilosis (assay: Antifungal activity against Candida parapsilosis 22019 assessed as inhibition of fungal growth incubated for 48 hrs by CLSI based broth microdilution assay). Details: Lodderomyces parapsilosis.
Type: functional

**Q.** With C[C@@H](OCc1ccn(Cc2ccc(F)cc2F)n1)[C@](O)(Cn1cncn1)c1ccc(F)cc1F as the molecule, how does the MIC read?
**A.** 0.5 µg/mL (≈ 1.05 µM)

**Q.** With C[C@@H](OCc1ccn(Cc2cccc(F)c2)n1)[C@](O)(Cn1cncn1)c1ccc(F)cc1F as the molecule, how does the MIC read?
**A.** 0.5 µg/mL (≈ 1.09 µM)

**Q.** C[C@@H](OCc1ccn(Cc2cc(F)ccc2F)n1)[C@](O)(Cn1cncn1)c1ccc(F)cc1F was tested. Which MIC did it give?
**A.** 0.5 µg/mL (≈ 1.05 µM)

**Q.** How did the MIC turn out when C[C@@H](OCc1ccn(Cc2cccc(Cl)c2Cl)n1)[C@](O)(Cn1cncn1)c1ccc(F)cc1F was run?
**A.** 0.25 µg/mL (≈ 0.492 µM)

**Q.** Cc1ccccc1Cn1ccc(CO[C@H](C)[C@](O)(Cn2cncn2)c2ccc(F)cc2F)n1 was tested. Which MIC did it give?
**A.** 0.5 µg/mL (≈ 1.1 µM)

**Q.** For C[C@@H](OCc1ccn(Cc2ccc(Cl)cc2Cl)n1)[C@](O)(Cn1cncn1)c1ccc(F)cc1F, which MIC is on record?
**A.** 0.25 µg/mL (≈ 0.492 µM)

**Q.** C[C@@H](OCc1ccn(Cc2cccc(F)c2F)n1)[C@](O)(Cn1cncn1)c1ccc(F)cc1F was tested. Which MIC did it give?
**A.** 0.5 µg/mL (≈ 1.05 µM)

The molecules below were run on Pichia kudriavzevii (assay: Antifungal activity against Candida krusei 4996 assessed as inhibition of fungal growth incubated for 48 hrs by CLSI based broth microdilution assay). Details: not given.
Type: functional

**Q.** C[C@@H](OCc1ccn(Cc2ccc(F)cc2F)n1)[C@](O)(Cn1cncn1)c1ccc(F)cc1F was tested. Which MIC did it give?
**A.** 4 µg/mL (≈ 8.41 µM)

**Q.** How did the MIC turn out when C[C@@H](OCc1ccn(Cc2cccc(F)c2)n1)[C@](O)(Cn1cncn1)c1ccc(F)cc1F was run?
**A.** 4 µg/mL (≈ 8.74 µM)

**Q.** For C[C@@H](OCc1ccn(Cc2cc(F)ccc2F)n1)[C@](O)(Cn1cncn1)c1ccc(F)cc1F, which MIC is on record?
**A.** 4 µg/mL (≈ 8.41 µM)

**Q.** C[C@@H](OCc1ccn(Cc2cccc(Cl)c2Cl)n1)[C@](O)(Cn1cncn1)c1ccc(F)cc1F was tested. Which MIC did it give?
**A.** 8 µg/mL (≈ 15.7 µM)

**Q.** How did the MIC turn out when Cc1ccccc1Cn1ccc(CO[C@H](C)[C@](O)(Cn2cncn2)c2ccc(F)cc2F)n1 was run?
**A.** 8 µg/mL (≈ 17.6 µM)

**Q.** C[C@@H](OCc1ccn(Cc2ccc(Cl)cc2Cl)n1)[C@](O)(Cn1cncn1)c1ccc(F)cc1F was tested. Which MIC did it give?
**A.** 4 µg/mL (≈ 7.87 µM)

**Q.** With C[C@@H](OCc1ccn(Cc2cccc(F)c2F)n1)[C@](O)(Cn1cncn1)c1ccc(F)cc1F as the molecule, how does the MIC read?
**A.** 8 µg/mL (≈ 16.8 µM)

The molecules below were run on Candida tropicalis (assay: Antifungal activity against Candida tropicalis 8915 assessed as inhibition of fungal growth incubated for 48 hrs by CLSI based broth microdilution assay). Details: not given.
Type: functional

**Q.** With C[C@@H](OCc1ccn(Cc2ccc(F)cc2F)n1)[C@](O)(Cn1cncn1)c1ccc(F)cc1F as the molecule, how does the MIC read?
**A.** 0.25 µg/mL (≈ 0.526 µM)

**Q.** For C[C@@H](OCc1ccn(Cc2cccc(F)c2)n1)[C@](O)(Cn1cncn1)c1ccc(F)cc1F, which MIC is on record?
**A.** 64 µg/mL (≈ 140 µM)

**Q.** With C[C@@H](OCc1ccn(Cc2cc(F)ccc2F)n1)[C@](O)(Cn1cncn1)c1ccc(F)cc1F as the molecule, how does the MIC read?
**A.** 0.25 µg/mL (≈ 0.526 µM)

**Q.** How did the MIC turn out when C[C@@H](OCc1ccn(Cc2cccc(Cl)c2Cl)n1)[C@](O)(Cn1cncn1)c1ccc(F)cc1F was run?
**A.** 16 µg/mL (≈ 31.5 µM)

**Q.** Which MIC does the source give for Cc1ccccc1Cn1ccc(CO[C@H](C)[C@](O)(Cn2cncn2)c2ccc(F)cc2F)n1 here?
**A.** > 64 µg/mL

**Q.** C[C@@H](OCc1ccn(Cc2ccc(Cl)cc2Cl)n1)[C@](O)(Cn1cncn1)c1ccc(F)cc1F was tested. Which MIC did it give?
**A.** 32 µg/mL (≈ 62.9 µM)

**Q.** With C[C@@H](OCc1ccn(Cc2cccc(F)c2F)n1)[C@](O)(Cn1cncn1)c1ccc(F)cc1F as the molecule, how does the MIC read?
**A.** 0.25 µg/mL (≈ 0.526 µM)

These molecules were tested on Candida albicans (assay: Antifungal activity against fluconazole-resistant Candida albicans 901 assessed as inhibition of fungal growth incubated for 48 hrs by CLSI based broth microdilution assay). Details: not given.
Type: functional

**Q.** How did the MIC turn out when C[C@@H](OCc1ccn(Cc2cc(F)ccc2F)n1)[C@](O)(Cn1cncn1)c1ccc(F)cc1F was run?
**A.** > 64 µg/mL

What follows are molecules tested on Candida albicans (assay: Antifungal activity against fluconazole-resistant Candida albicans 904 assessed as inhibition of fungal growth incubated for 48 hrs by CLSI based broth microdilution assay). Details: not given.
Type: functional

**Q.** Which MIC does the source give for C[C@@H](OCc1ccn(Cc2cc(F)ccc2F)n1)[C@](O)(Cn1cncn1)c1ccc(F)cc1F here?
**A.** > 64 µg/mL

These molecules were tested on [Candida] auris (assay: Antifungal activity against fluconazole-resistant Candida auris 891 assessed as inhibition of fungal growth incubated for 48 hrs by CLSI based broth microdilution assay). Details: Candidozyma auris.
Type: functional

**Q.** Which MIC does the source give for C[C@@H](OCc1ccn(Cc2cc(F)ccc2F)n1)[C@](O)(Cn1cncn1)c1ccc(F)cc1F here?
**A.** 16 µg/mL (≈ 33.7 µM)

These molecules were tested on [Candida] auris (assay: Antifungal activity against fluconazole-resistant Candida auris 918 assessed as inhibition of fungal growth incubated for 48 hrs by CLSI based broth microdilution assay). Details: Candidozyma auris.
Type: functional

**Q.** For C[C@@H](OCc1ccn(Cc2cc(F)ccc2F)n1)[C@](O)(Cn1cncn1)c1ccc(F)cc1F, which MIC is on record?
**A.** 32 µg/mL (≈ 67.3 µM)

These molecules were tested on [Candida] auris (assay: Antifungal activity against fluconazole-resistant Candida auris 919 assessed as inhibition of fungal growth incubated for 48 hrs by CLSI based broth microdilution assay). Details: Candidozyma auris.
Type: functional

**Q.** For C[C@@H](OCc1ccn(Cc2cc(F)ccc2F)n1)[C@](O)(Cn1cncn1)c1ccc(F)cc1F, which MIC is on record?
**A.** 32 µg/mL (≈ 67.3 µM)
